Assay: Remineralizing properties on EDTA-etched dentin blocks soaked in simulated body fluid (SEM/EDX)
Details: 15 μL applied on dentin etched by 10% EDTA; soaked in simulated body fluid for 7 d; PDDAF 280,000 ppm, SDF 38%
Description: The volume of both solutions applied on dentin surface is 15 μL.
The remineralizing properties of 280,000 ppm cationic polymer fluoride solution was examined. […] Dentin blocks with the dimensions of 4 mm×4 mm×2 mm were prepared (FIGS. 8C-8D, 9C-9D).

silver diamine fluoride [38% SDF]
minerals formed on re-mineralized dentin surface (EDX): formation of mineral calcium phosphate and silver chloride

Source: US20250026880A1, “POLY(DIALLYLDIMETHYLAMMONIUM) FLUORIDE - A NEW ANTI-CARIES AND REMINERALIZING AGENT” (The University of Hong Kong, priority 2023, published 2025)
